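In this assay, cells in 96-well plates receive the compound at five concentrations for 48 hours. Endpoints are linearly interpolated between the surrounding concentrations. Here, GI50 denotes the concentration required for 50% inhibition of growth. The concentration for full growth arrest is given as TGI.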
Experiments:
Experiment in all cases: NCI-60 cell line screen, 48 h
[1] = test system: 786-0 renal
[2] = test system: A498 renal
[3] = test system: A549 NSCLC
[4] = test system: ACHN renal
[5] = test system: BT-549 breast
[6] = test system: CAKI-1 renal
[7] = test system: CCRF-CEM leukemia
[8] = test system: COLO 205 colon
[9] = test system: DU-145 prostate
[10] = test system: EKVX NSCLC
[11] = test system: HCC-2998 colon
[12] = test system: HCT-116 colon
[13] = test system: HCT-15 colon
[14] = test system: HL-60(TB) leukemia
[15] = test system: HOP-62 NSCLC
[16] = test system: HOP-92 NSCLC
[17] = test system: HS 578T breast
[18] = test system: HT29 colon
[19] = test system: IGROV1 ovarian
[20] = test system: K-562 leukemia
[21] = test system: KM12 colon
[22] = test system: LOX IMVI melanoma
[23] = test system: M14 melanoma
[24] = test system: MALME-3M melanoma
[25] = test system: MCF7 breast
[26] = test system: MDA-MB-231 breast
[27] = test system: MDA-MB-435
[28] = test system: MOLT-4 leukemia
[29] = test system: NCI-H226 lung
[30] = test system: NCI-H23 lung
[31] = test system: NCI-H460 lung
[32] = test system: NCI-H522 lung
[33] = test system: NCI/ADR-RES ovarian
[34] = test system: OVCAR-3 ovarian
[35] = test system: OVCAR-4 ovarian
[36] = test system: OVCAR-5 ovarian
[37] = test system: OVCAR-8 ovarian
[38] = test system: PC-3 prostate
[39] = test system: RPMI-8226 leukemia
[40] = test system: RXF 393 renal
[41] = test system: SF-268 CNS
[42] = test system: SF-295 CNS
[43] = test system: SF-539 CNS
[44] = test system: SK-MEL-2 melanoma
[45] = test system: SK-MEL-28 melanoma
[46] = test system: SK-MEL-5 melanoma
[47] = test system: SK-OV-3 ovarian
[48] = test system: SN12C renal
[49] = test system: SNB-19 CNS
[50] = test system: SNB-75 CNS
[51] = test system: SR leukemia
[52] = test system: SW-620 colon
[53] = test system: T-47D breast
[54] = test system: TK-10 renal
[55] = test system: U251 CNS
[56] = test system: UACC-257 melanoma
[57] = test system: UACC-62 melanoma
[58] = test system: UO-31 renal

## Cc1sc(C(=O)c2cncnc2N[C@@H]2C[C@H](COS(N)(=O)=O)[C@@H](O)C2)cc1[C@@H]1NCCc2ccc(Cl)cc21
[1]
  GI50: 12.9 µM
  TGI: 28.8 µM
[2]
  GI50: 4.26 µM
  TGI: 20.2 µM
[3]
  GI50: 2.21 µM
  TGI: 22.3 µM
[4]
  GI50: 11.8 µM
  TGI: 25.7 µM
[5]
  GI50: 12.8 µM
  TGI: 26.6 µM
[6]
  GI50: 1.63 µM
  TGI: 25.5 µM
[7]
  GI50: 0.0801 µM
  TGI: 20.1 µM
[8]
  GI50: 0.041 µM
  TGI: 11.8 µM
[9]
  GI50: 13.2 µM
  TGI: 27.8 µM
[10]
  GI50: 8.88 µM
  TGI: 25.7 µM
[11]
  GI50: 0.922 µM
  TGI: 19.9 µM
[12]
  GI50: 1.31 µM
  TGI: 22.6 µM
[13]
  GI50: 6.64 µM
  TGI: 21.1 µM
[14]
  GI50: 0.294 µM
  TGI: 13.2 µM
[15]
  GI50: 12.9 µM
  TGI: 28.1 µM
[16]
  GI50: 0.0783 µM
  TGI: 12.9 µM
[17]
  GI50: 6.08 µM
  TGI: 44 µM
[18]
  GI50: 0.234 µM
  TGI: 20.9 µM
[19]
  GI50: 11 µM
  TGI: 25.7 µM
[20]
  GI50: 4.19 µM
  TGI: 34.2 µM
[21]
  GI50: 13.1 µM
  TGI: 28.3 µM
[22]
  GI50: 0.0959 µM
  TGI: 15.6 µM
[23]
  GI50: 0.572 µM
  TGI: 21.6 µM
[24]
  GI50: 0.0394 µM
  TGI: 15.5 µM
[25]
  GI50: 0.0138 µM
  TGI: 17.3 µM
[26]
  GI50: 9.29 µM
  TGI: 24.8 µM
[27]
  GI50: 0.156 µM
  TGI: 14.8 µM
[28]
  GI50: 0.59 µM
  TGI: 23.4 µM
[29]
  GI50: 10.3 µM
  TGI: 25.7 µM
[30]
  GI50: 11.8 µM
  TGI: 27 µM
[31]
  GI50: 0.466 µM
  TGI: 20.6 µM
[32]
  GI50: 3.49 µM
  TGI: 25.9 µM
[33]
  GI50: 51.8 µM
  TGI: > 100 µM
[34]
  GI50: 4.98 µM
  TGI: 21.7 µM
[35]
  GI50: 4.38 µM
  TGI: 31.1 µM
[36]
  GI50: 9.43 µM
  TGI: 23.6 µM
[37]
  GI50: 11.7 µM
  TGI: 58.7 µM
[38]
  GI50: 5.44 µM
  TGI: 24.5 µM
[39]
  GI50: 2.01 µM
  TGI: 22.2 µM
[40]
  GI50: 6.35 µM
  TGI: 22 µM
[41]
  GI50: 14.4 µM
  TGI: 32.4 µM
[42]
  GI50: 11 µM
  TGI: 23.2 µM
[43]
  GI50: 1.48 µM
  TGI: 20.3 µM
[44]
  GI50: 5.58 µM
  TGI: 23.9 µM
[45]
  GI50: 9.88 µM
  TGI: 22.1 µM
[46]
  GI50: 1.94 µM
  TGI: 17.3 µM
[47]
  GI50: 2.65 µM
  TGI: 25.2 µM
[48]
  GI50: 9.85 µM
  TGI: 24.5 µM
[49]
  GI50: 14.8 µM
  TGI: 28.8 µM
[50]
  GI50: 1.65 µM
  TGI: 20.1 µM
[51]
  GI50: 0.547 µM
  TGI: 26.3 µM
[52]
  GI50: 7.63 µM
  TGI: 24.5 µM
[53]
  GI50: 2.37 µM
  TGI: 29.3 µM
[54]
  GI50: 12.9 µM
  TGI: 26.8 µM
[55]
  GI50: 10.9 µM
  TGI: 26.7 µM
[56]
  GI50: 0.0793 µM
  TGI: 20.1 µM
[57]
  GI50: 3.75 µM
  TGI: 21.7 µM
[58]
  GI50: 3.66 µM
  TGI: 24.6 µM

## CCN1CCN(c2nc(C)cc(NCc3cc(Nc4ccnc5cc(Cl)ccc45)ccc3F)n2)CC1
[1]
  GI50: 1.54 µM
  TGI: 3.13 µM
[2]
  GI50: 1.94 µM
  TGI: 4.01 µM
[3]
  GI50: 3.54 µM
  TGI: 13.9 µM
[4]
  GI50: 2.47 µM
  TGI: 7.4 µM
[5]
  GI50: 1.62 µM
  TGI: 4.28 µM
[6]
  GI50: 1.83 µM
  TGI: 4.72 µM
[7]
  GI50: 2.06 µM
  TGI: 15.2 µM
[8]
  GI50: 1.77 µM
  TGI: 3.95 µM
[9]
  GI50: 3.23 µM
  TGI: 12.1 µM
[10]
  GI50: 3.03 µM
  TGI: 14 µM
[11]
  GI50: 1.78 µM
  TGI: 3.89 µM
[12]
  GI50: 1.01 µM
  TGI: 2.75 µM
[13]
  GI50: 1.46 µM
  TGI: 3.66 µM
[14]
  GI50: 2.22 µM
  TGI: 4.55 µM
[15]
  GI50: 1.58 µM
  TGI: 4.57 µM
[16]
  GI50: 1.21 µM
  TGI: 4.07 µM
[17]
  GI50: 1.72 µM
  TGI: 5.29 µM
[18]
  GI50: 1.96 µM
  TGI: 6.17 µM
[19]
  GI50: 2.2 µM
  TGI: 7.27 µM
[20]
  GI50: 0.663 µM
  TGI: 4.95 µM
[21]
  GI50: 2.95 µM
  TGI: 10.5 µM
[22]
  GI50: 1.02 µM
  TGI: 2.34 µM
[23]
  GI50: 1.45 µM
  TGI: 3.12 µM
[24]
  GI50: 1.78 µM
  TGI: 3.66 µM
[25]
  GI50: 1.81 µM
  TGI: 5.31 µM
[26]
  GI50: 1.44 µM
  TGI: 3.56 µM
[27]
  GI50: 1.5 µM
  TGI: 2.91 µM
[28]
  GI50: 2.44 µM
  TGI: 16.6 µM
[29]
  GI50: 2.82 µM
  TGI: 10.3 µM
[30]
  GI50: 2.62 µM
  TGI: 13 µM
[31]
  GI50: 1.56 µM
  TGI: 3.67 µM
[32]
  GI50: 3.02 µM
  TGI: 7.77 µM
[33]
  GI50: 3.07 µM
  TGI: 15.1 µM
[34]
  GI50: 1.96 µM
  TGI: 4.93 µM
[35]
  GI50: 1.59 µM
  TGI: 7.7 µM
[36]
  GI50: 2.2 µM
  TGI: 6.71 µM
[37]
  GI50: 3.2 µM
  TGI: 13.7 µM
[38]
  GI50: 1.72 µM
  TGI: 8.66 µM
[39]
  GI50: 0.981 µM
  TGI: 4.32 µM
[40]
  GI50: 1.27 µM
  TGI: 3 µM
[41]
  GI50: 1.89 µM
  TGI: 5.79 µM
[42]
  GI50: 1.05 µM
  TGI: 2.61 µM
[43]
  GI50: 1.76 µM
  TGI: 3.37 µM
[44]
  GI50: 2.12 µM
  TGI: 4.1 µM
[45]
  GI50: 1.7 µM
  TGI: 3.37 µM
[46]
  GI50: 1.7 µM
  TGI: 3.12 µM
[47]
  GI50: 4.14 µM
  TGI: 15 µM
[48]
  GI50: 1.94 µM
  TGI: 6.41 µM
[49]
  GI50: 2.91 µM
  TGI: 13.1 µM
[50]
  GI50: 1.37 µM
  TGI: 3.52 µM
[51]
  GI50: 1.3 µM
  TGI: 5.89 µM
[52]
  GI50: 1.78 µM
  TGI: 4.81 µM
[53]
  GI50: 1.73 µM
  TGI: 5.07 µM
[54]
  GI50: 2.39 µM
  TGI: 6.04 µM
[55]
  GI50: 1.95 µM
  TGI: 5.44 µM
[56]
  GI50: 1.89 µM
  TGI: 3.79 µM
[58]
  GI50: 1.31 µM
  TGI: 2.99 µM

From PubChem BioAssay (NCI)
